Measurements published in ChEMBL document CHEMBL5528067, “From Synergy to Monotherapy: Discovery of Novel 2,4,6-Trisubstituted Triazine Hydrazone Derivatives with Potent Antifungal Potency In Vitro and In Vivo” (J Med Chem, 2024).
Values after ≈ are worked out from the molar mass of the structure shown.

Columns and labels:
Assay type in all cases: functional
Candida albicans [1] = assay: Antifungal activity against FCZ-resistant Candida albicans SC5314 assessed as growth inhibition measured after 48 hrs incubation by CLSI based micro-dilution broth method
Candida albicans [2] = assay: Antifungal activity against FCZ-resistant Candida albicans 10231 assessed as growth inhibition measured after 48 hrs incubation by CLSI based micro-dilution broth method
Cryptococcus neoformans = assay: Antifungal activity against Cryptococcus neoformans 32609 assessed as growth inhibition measured after 48 hrs incubation by CLSI based micro-dilution broth method
Nakaseomyces glabratus = assay: Antifungal activity against Candida glabrata 537 assessed as growth inhibition measured after 48 hrs incubation by CLSI based micro-dilution broth method
Pichia kudriavzevii = assay: Antifungal activity against Candida krusei 4996 assessed as growth inhibition measured after 48 hrs incubation by CLSI based micro-dilution broth method
Candida parapsilosis = assay: Antifungal activity against Candida parapsilosis 22019 assessed as growth inhibition measured after 48 hrs incubation by CLSI based micro-dilution broth method; details: Lodderomyces parapsilosis
Candida tropicalis = assay: Antifungal activity against Candida tropicalis 8915 assessed as growth inhibition measured after 48 hrs incubation by CLSI based micro-dilution broth method
[Candida] auris [3] = Antifungal activity against FCZ-resistant Candida auris 918 assessed as growth inhibition measured after 48 hrs incubation by CLSI based micro-dilution broth method; details: Candidozyma auris
[Candida] auris [4] = Antifungal activity against FCZ-resistant Candida auris 919 assessed as growth inhibition measured after 48 hrs incubation by CLSI based micro-dilution broth method; details: Candidozyma auris
Candida albicans [5] = assay: Antifungal activity against FCZ-resistant Candida albicans strain 901 assessed as growth inhibition measured after 48 hrs incubation by CLSI based micro-dilution broth method
Candida albicans [6] = assay: Antifungal activity against FCZ-resistant Candida albicans strain 901 assessed as growth inhibition in presence of fluconazole measured after 48 hrs incubation by CLSI based micro-dilution broth method
Candida albicans [7] = assay: Synergistic antifungal activity against FCZ-resistant Candida albicans strain 901 assessed as fractional inhibitory concentration index measured after 48 hrs in presence of FCZ by CLSI based micro-dilution broth method
Candida albicans [8] = assay: Antifungal activity against FCZ-resistant Candida albicans strain 904 assessed as growth inhibition measured after 48 hrs incubation by CLSI based micro-dilution broth method
Candida albicans [9] = assay: Antifungal activity against FCZ-resistant Candida albicans strain 904 assessed as growth inhibition in presence of fluconazole measured after 48 hrs incubation by CLSI based micro-dilution broth method
Candida albicans [10] = assay: Synergistic antifungal activity against FCZ-resistant Candida albicans strain 904 assessed as fractional inhibitory concentration index measured after 48 hrs in presence of FCZ by CLSI based micro-dilution broth method

SMILES | MIC80 (Candida albicans [1]) [µg/mL] | MIC80 (Candida albicans [2]) [µg/mL] | MIC80 (Cryptococcus neoformans) [µg/mL] | MIC80 (Nakaseomyces glabratus) [µg/mL] | MIC80 (Pichia kudriavzevii) [µg/mL] | MIC80 (Candida parapsilosis) [µg/mL] | MIC80 (Candida tropicalis) [µg/mL] | MIC80 ([Candida] auris [3]) [µg/mL] | MIC80 ([Candida] auris [4]) [µg/mL] | MIC80 (Candida albicans [5]) [µg/mL] | MIC80 (Candida albicans [6]) [µg/mL] | fractional inhibitory concentration index (FICI) (Candida albicans [7]) | MIC80 (Candida albicans [8]) [µg/mL] | MIC80 (Candida albicans [9]) [µg/mL] | fractional inhibitory concentration index (FICI) (Candida albicans [10])
O=[N+]([O-])c1ccc(O)c(/C=N/Nc2nc(N3CCOCC3)nc(N3CCOCC3)n2)c1 | > 64 | > 64 | > 64 | > 64 | > 64 | > 64 | > 64 | > 64 | > 64 | – | – | – | – | – | –
COc1ccc(/C=N/Nc2nc(NCc3ccc(F)cc3)nc(NCc3ccc(F)cc3)n2)cc1 | – | – | – | – | – | – | – | – | – | > 64 | > 64 | 1.13 | > 64 | > 64 | 1.13
Fc1ccc(CNc2nc(NCc3ccc(F)cc3)nc(N/N=C/c3ccccc3Cl)n2)cc1 | – | – | – | – | – | – | – | – | – | > 64 | > 64 | 1.13 | > 64 | > 64 | 1.13
O=[N+]([O-])c1cc(/C=N/Nc2nc(NCc3ccc(F)cc3)nc(NCc3ccc(F)cc3)n2)ccc1O | – | – | – | – | – | – | – | – | – | > 64 | 8 | 0.25 | > 64 | 4 | 0.19
O=[N+]([O-])c1cccc(/C=N/Nc2nc(NCc3ccc(F)cc3)nc(NCc3ccc(F)cc3)n2)c1 | – | – | – | – | – | – | – | – | – | > 64 | > 64 | 1.13 | > 64 | > 64 | 1.13
Fc1ccc(/C=N/Nc2nc(NCc3ccc(F)cc3)nc(NCc3ccc(F)cc3)n2)cc1 | – | – | – | – | – | – | – | – | – | > 64 | > 64 | 1.13 | > 64 | > 64 | 1.13
Fc1ccc(CNc2nc(NCc3ccc(F)cc3)nc(N/N=C/c3cccc(Cl)c3)n2)cc1 | – | – | – | – | – | – | – | – | – | > 64 | > 64 | 1.13 | > 64 | > 64 | 1.13
Cc1cccc(/C=N/Nc2nc(NCc3ccc(F)cc3)nc(NCc3ccc(F)cc3)n2)c1 | – | – | – | – | – | – | – | – | – | > 64 | > 64 | 1.13 | > 64 | > 64 | 1.13
O=[N+]([O-])c1ccc(O)c(/C=N/Nc2nc(NCc3ccccc3)nc(NCc3ccc(F)cc3)n2)c1 | 2 (≈ 4.09 µM) | 8 (≈ 16.4 µM) | 2 (≈ 4.09 µM) | 0.5 (≈ 1.02 µM) | 1 (≈ 2.05 µM) | 4 (≈ 8.19 µM) | 2 (≈ 4.09 µM) | 4 (≈ 8.19 µM) | 16 (≈ 32.8 µM) | – | – | – | – | – | –
O=[N+]([O-])c1ccc(O)c(/C=N/Nc2nc(NCc3ccc(F)cc3)nc(N3CCOCC3)n2)c1 | 4 (≈ 8.54 µM) | 16 (≈ 34.2 µM) | 4 (≈ 8.54 µM) | 1 (≈ 2.13 µM) | 2 (≈ 4.27 µM) | 32 (≈ 68.3 µM) | 4 (≈ 8.54 µM) | > 64 | > 64 | – | – | – | – | – | –
O=[N+]([O-])c1ccc(O)c(/C=N/Nc2nc(NCc3ccco3)nc(NCc3ccco3)n2)c1 | 2 (≈ 4.44 µM) | 8 (≈ 17.8 µM) | 2 (≈ 4.44 µM) | 1 (≈ 2.22 µM) | 1 (≈ 2.22 µM) | 4 (≈ 8.88 µM) | 2 (≈ 4.44 µM) | 4 (≈ 8.88 µM) | 4 (≈ 8.88 µM) | – | – | – | – | – | –
Cc1ccc(/C=N/Nc2nc(NCc3ccc(F)cc3)nc(NCc3ccc(F)cc3)n2)cc1 | – | – | – | – | – | – | – | – | – | > 64 | > 64 | 1.13 | > 64 | > 64 | 1.13
O=[N+]([O-])c1ccccc1/C=N/Nc1nc(NCc2ccc(F)cc2)nc(NCc2ccc(F)cc2)n1 | – | – | – | – | – | – | – | – | – | > 64 | > 64 | 1.13 | > 64 | > 64 | 1.13
O=[N+]([O-])c1ccc(/C=N/Nc2nc(NCc3ccc(F)cc3)nc(NCc3ccc(F)cc3)n2)cc1 | – | – | – | – | – | – | – | – | – | > 64 | > 64 | 1.13 | > 64 | > 64 | 1.13
N#Cc1ccc(/C=N/Nc2nc(NCc3ccc(F)cc3)nc(NCc3ccc(F)cc3)n2)cc1 | – | – | – | – | – | – | – | – | – | > 64 | > 64 | 1.13 | > 64 | > 64 | 1.13
